The source of these data is ChEMBL document CHEMBL1154906, “Additional insights on the bastadins: isolation of analogues from the sponge Ianthella cf. reticulata and exploration of the oxime configurations” (J Nat Prod, 2010).

Structures are written as SMILES. Active and inactive are the calls of the source. No cut-off for these calls is given here.

By IC50 is commonly meant the midpoint of a concentration-inhibition curve. The low end stands for greater potency in that assay, the high end for weaker potency in that assay.

The first test has as its system HCT-116. The experiment in a line: Cytotoxicity against human HCT116 cells after 7 days by methylene blue staining.
Settings: not given
Format: functional, cell-based.
As to `O=C(NCCc1ccc(O)c(Br)c1)/C(Cc1cc(Br)c(O)c(-c2cc(C/C(=N/O)C(=O)NCCc3ccc(O)c(Br)c3)cc(Br)c2O)c1)=N\O`, the outcome was inactive.

On to `O=C1NCCc2cc(Br)c(O)c(c2)Oc2ccc(cc2Br)CCNC(=O)/C(=N\O)Cc2cc(Br)c(O)c(c2)Oc2c(Br)cc(cc2Br)C/C1=N/O`, for which the result was inactive.

Consider `O=C1NCCc2ccc(c(Br)c2)Oc2cc(cc(Br)c2O)CCNC(=O)/C(=N/O)Cc2cc(Br)c(O)c(c2)Oc2c(Br)cc(cc2Br)C/C1=N/O`, for which the result was inactive.

`O=C(NCCc1ccc(O)c(Br)c1)/C(Cc1cc(Br)c2c(c1)-c1cc(C/C(=N\O)C(=O)NCCc3ccc(O)c(Br)c3)cc(Br)c1OCO2)=N\O`: the outcome was inactive.

As to `O=C1NCCc2ccc(c(Br)c2)Oc2cc(cc(Br)c2O)CCNC(=O)/C(=N/O)Cc2cc(Br)c(O)c(c2)Oc2c(Br)cc(cc2Br)C/C1=N\O` [BASTADIN 19], the outcome was inactive.

Turning to `O=C1NCCc2cc(Br)c(O)c(c2)Oc2c(Br)cc(cc2Br)CCNC(=O)/C(=N/O)Cc2cc(Br)c(O)c(c2)Oc2c(Br)cc(cc2Br)C/C1=N\O`, the outcome was inactive.

Still in this test, the particulars now being: HCT-116, 168 h.
Compound `O=C1N/C=C/c2ccc(c(Br)c2)Oc2cc(cc(Br)c2O)CCNC(=O)/C(=N/O)Cc2cc(Br)c(c(Br)c2)Oc2cc(cc(Br)c2O)C/C1=N\O` [BASTADIN 4] returned a half-maximal inhibitory concentration (IC50) of 1280 nM.

The test system of another test is Trypanosoma brucei brucei. The test is described as follows: Antitrypanosomal activity against Trypanosoma brucei brucei 221 after 48 hrs by ATP-bioluminescence assay. In kind it is functional, organism-based.
Settings: not given
For `O=C1NCCc2cc(Br)c(O)c(c2)Oc2ccc(cc2Br)[C@H](O)CNC(=O)/C(=N/O)Cc2cc(Br)c(O)c(c2)Oc2c(Br)cc(cc2Br)C/C1=N\O`, the outcome was inactive.

For the compound `O=C1NCCc2cc(Br)c(O)c(c2)Oc2ccc(cc2)CCNC(=O)/C(=N/O)Cc2cc(Br)c(O)c(c2)Oc2c(Br)cc(cc2Br)C/C1=N\O`, the result was inactive.

Turning to `O=C1NCCc2cc(Br)c(O)c(c2)Oc2ccc(cc2Br)CCNC(=O)/C(=N\O)Cc2cc(Br)c(O)c(c2)Oc2c(Br)cc(cc2Br)C/C1=N/O`, the outcome was inactive.

In the case of `O=C1N/C=C/c2ccc(c(Br)c2)Oc2cc(cc(Br)c2O)CCNC(=O)/C(=N/O)Cc2cc(Br)c(c(Br)c2)Oc2cc(cc(Br)c2O)C/C1=N\O` [BASTADIN 4], the outcome was inactive.

On to `O=C(NCCc1ccc(O)c(Br)c1)/C(Cc1cc(Br)c(O)c(Oc2c(Br)cc(C/C(=N\O)C(=O)NCCc3ccc(O)c(Br)c3)cc2Br)c1)=N\O`, for which the result was inactive.

`O=C1NCCc2cc(Br)c(O)c(c2)Oc2c(Br)cc(cc2Br)CCNC(=O)/C(=N/O)Cc2cc(Br)c(O)c(c2)Oc2c(Br)cc(cc2Br)C/C1=N\O`: the outcome was inactive.

As to `O=C1N/C=C/c2ccc(c(Br)c2)Oc2cc(cc(Br)c2O)CCNC(=O)/C(=N/O)Cc2ccc(c(Br)c2)Oc2cc(cc(Br)c2O)C/C1=N\O`, the outcome was inactive.

The same test, now with this note: Trypanosoma brucei, 221, 48 h.
Compound `O=C1NCCc2ccc(c(Br)c2)Oc2cc(ccc2O)CCNC(=O)/C(=N/O)Cc2cc(Br)c(O)c(c2)Oc2c(Br)cc(cc2Br)C/C1=N\O` [BASTADIN 13] gave an IC50 of 1770 nM.

`O=C1NCCc2ccc(c(Br)c2)Oc2cc(cc(Br)c2O)CCNC(=O)/C(=N/O)Cc2cc(Br)c(O)c(c2)Oc2c(Br)cc(cc2Br)C/C1=N\O` [BASTADIN 19] gave a concentration for half-maximal inhibition (IC50) of 1310 nM.
